According to BindingDB's records for doi:10.1021/jm070130j (Johnson & Johnson Pharmaceutical, 2007):
pEC50: −log10 of the molar value.

molecular target: Free fatty acid receptor 1 (Homo sapiens, UniProt O14842); experiment: GPR40 FDSS Assay; conditions: 37 °C
Method: Human embryonic kidney (HEK293) cells expressing human GPR40 receptors were grown in Dulbecco modified Eagles medium (DMEM)/F12 media supplemented with 10% fetal FBS and glutamine. Changes in ligand-induced calcium-dependent intracellular fluorescence were measured with a fluorometric plate reader (FDSS; Hamamatsu Corp., Bridgewater, NJ).

Chain of Free fatty acid receptor 1 (O14842 whole entry): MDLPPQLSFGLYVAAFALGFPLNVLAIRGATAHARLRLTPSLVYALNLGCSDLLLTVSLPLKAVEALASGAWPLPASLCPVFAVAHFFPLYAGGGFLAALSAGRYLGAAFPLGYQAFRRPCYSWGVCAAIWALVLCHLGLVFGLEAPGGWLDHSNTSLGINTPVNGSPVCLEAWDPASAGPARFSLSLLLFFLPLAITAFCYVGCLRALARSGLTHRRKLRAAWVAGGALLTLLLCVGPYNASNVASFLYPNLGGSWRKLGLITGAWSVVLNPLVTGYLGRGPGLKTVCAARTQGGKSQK

Compound | pEC50
CCCOc1ccc(C(CC(=O)O)c2ccccc2)cc1 (stereo not given) [3-phenyl-3-(4-propoxyphenyl)propanoic acid] | 5.32
CCCCOc1ccc(C(CC(=O)O)c2cccs2)cc1 (stereo not given) [3-(4-butoxyphenyl)-3-(thiophen-2-yl)propanoic acid] | 5.89
C/C=C/COc1ccc(C(CC(=O)O)c2ccccc2)cc1 (stereo not given) [3-{4-[(2E)-but-2-en-1-yloxy]phenyl}-3-phenylpropanoic acid] | 5.57
CC(C)CCOc1ccc(C(CC(=O)O)c2ccccc2)cc1 (stereo not given) [3-[4-(3-methylbutoxy)phenyl]-3-phenylpropanoic acid] | 5.73
CCCCOc1ccc(C(CCCC(=O)O)c2ccccc2)cc1 (stereo not given) [5-(4-butoxyphenyl)-5-phenylpentanoic acid] | < 5.00
CCC(C)COc1ccc(C(CC(=O)O)c2ccccc2)cc1 (stereo not given) [3-[4-(2-methylbutoxy)phenyl]-3-phenylpropanoic acid] | 6.52
CCCCOc1ccc(C(CC(=O)O)c2ccc(C(F)(F)F)cc2)cc1 (stereo not given) [3-(4-butoxyphenyl)-3-[4-(trifluoromethyl)phenyl]propanoic acid] | < 5.00
CCCCOc1ccc(C(CC(=O)O)c2ccccc2)cc1 (stereo not given) [3-(4-butoxyphenyl)-3-phenylpropanoic acid] | 5.92
CCCCCOc1cccc(C(CC(=O)O)c2ccccc2)c1 (stereo not given) [3-[3-(pentyloxy)phenyl]-3-phenylpropanoic acid] | < 5.00
CCCCCOc1ccc(C(CC(=O)O)c2ccccc2)cc1 (stereo not given) [3-[4-(pentyloxy)phenyl]-3-phenylpropanoic acid] | 5.53
